Values after ≈ are worked out from the molar mass of the structure shown.
Assays:
[1] = system: Pimephales promelas; details: chronic/long-term; duration: 266 days; reproduction
[2] = system: Tagia sp.; details: chronic/long-term; growth
[3] = system: Apis mellifera; details: acute, mortality
[4] = system: Neomysis kadiakensis; details: chronic/long-term; duration: 28 days; reproduction
[5] = system: Oncorhynchus mykiss; details: acute, mortality
[6] = system: Folsomia candida; details: chronic/long-term; mortality
[7] = system: Chironomus tentans; details: chronic/long-term; duration: 24 days
[8] = system: Colinus virginianus; details: for LD50: acute, oral, mortality
[9] = system: Rattus norvegicus; details: for LD50: acute, mortality
[10] = system: Daphnia magna; details: chronic/long-term; duration: 21 days; reproduction

Row | Structure (SMILES) | NOEC [1] | NOEC [2] | LD50 ([3]; dermal) | LD50 ([3]; oral, unspecified) | NOEC [4] | LC50 ([5]; duration: 96 hours) | NOEC [6] | NOEC [7] | LD50 ([8]; diet) | LD50 [8] | NOEL ([8]; chronic, reproduction) | LD50 [9] | NOAEL ([9]; chronic, body weight) | LD50 ([9]; oral) | NOAEL ([9]; subchronic, duration: 90 days, oral) | LC50 [5] | NOEC [10]
1 | CSC1=N[C@@](C)(c2ccccc2)C(=O)N1Nc1ccccc1 [(S)-1-Anilino-4-methyl-2-methylthio-4-phenylimidazolin-5-one] | 0.07 mg/L | 0.63 mg/kg | 25.7 µg/piece | > 93.3 µg/piece | 0.0095 mg/L | 0.74 µg/mL (≈ 2.38 µM) | 2.26 mg/kg | 0.05 mg/L | > 1070 mg/kg | > 2000 mg/kg | 133 mg/kg-day | > 2030 mg/kg | 3.9 mg/kg-day |  |  |  | 
2 | CC1(c2ccccc2)NC(=O)NC1=O (configuration not stated) [5-Methyl-5-phenylhydantoin] |  |  |  |  |  |  |  |  | > 2500 mg/kg |  |  |  |  | 1520 mg/kg | 6.4 mg/kg-day |  | 
3 | CSC1=N[C@@](C)(c2ccccc2)C(=O)N1 |  | 100 mg/kg |  |  |  |  | 250 mg/kg |  | 723 mg/kg |  |  | 176 mg/kg |  |  |  | > 98 µg/mL | 16 mg/L

Source: EPA's ToxValDB 9.5 (doi:10.2903/j.efsa.2016.4406)
